Data taken from PubChem BioAssay (NCI).
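Cultured in 96-well plates, cells were exposed to test compound for 48 hours across five concentrations. TGI: concentration producing complete growth inhibition.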

Columns and labels:
Test in all cases: inhibition of tumour cell growth, NCI panel, 48 h
[1] = test system: NCI-H226 lung
[2] = test system: SK-MEL-5 melanoma
[3] = test system: SF-539 CNS
[4] = test system: SW-620 colon
[5] = test system: CCRF-CEM leukemia
[6] = test system: MOLT-4 leukemia
[7] = test system: OVCAR-4 ovarian
[8] = test system: 786-0 renal
[9] = test system: OVCAR-3 ovarian
[10] = test system: RXF 393 renal
[11] = test system: ACHN renal
[12] = test system: SN12C renal
[13] = test system: T-47D breast
[14] = test system: CAKI-1 renal
[15] = test system: HCC-2998 colon
[16] = test system: DU-145 prostate
[17] = test system: SF-268 CNS
[18] = test system: SK-MEL-28 melanoma
[19] = test system: M14 melanoma
[20] = test system: KM12 colon
[21] = test system: RPMI-8226 leukemia
[22] = test system: NCI-H522 lung
[23] = test system: UACC-62 melanoma
[24] = test system: IGROV1 ovarian
[25] = test system: MALME-3M melanoma
[26] = test system: BT-549 breast
[27] = test system: LOX IMVI melanoma
[28] = test system: NCI-H23 lung
[29] = test system: K-562 leukemia
[30] = test system: TK-10 renal
[31] = test system: SR leukemia
[32] = test system: EKVX NSCLC
[33] = test system: HT29 colon
[34] = test system: OVCAR-8 ovarian
[35] = test system: SNB-75 CNS
[36] = test system: U251 CNS
[37] = test system: UO-31 renal
[38] = test system: COLO 205 colon
[39] = test system: NCI-H460 lung
[40] = test system: UACC-257 melanoma
[41] = test system: SK-OV-3 ovarian
[42] = test system: SNB-19 CNS
[43] = test system: MDA-N
[44] = test system: HL-60(TB) leukemia
[45] = test system: HCT-15 colon
[46] = test system: A549 NSCLC
[47] = test system: MCF7 breast
[48] = test system: MDA-MB-231 breast
[49] = test system: OVCAR-5 ovarian
[50] = test system: PC-3 prostate
[51] = test system: NCI/ADR-RES ovarian
[52] = test system: HOP-62 NSCLC
[53] = test system: MDA-MB-435
[54] = test system: HS 578T breast
[55] = test system: HOP-92 NSCLC
[56] = test system: SF-295 CNS

Measured: TGI

COC(=O)[C@@]12CN(C)[C@@H](C(C)(C)C)N1C(=O)OC2c1ccccc1 (stereo partly specified)
> 100 µM: all assays above
